Measured values reported in patent publication US20090215894A1, “INHIBITION OF PHOSPHATASE ACTIVITY OF SOLUBLE EPOXIDE HYDROLASE AMINO TERMINUS AND USES THEREOF” (REGENTS OF THE UNIVERSITY OF CALIFORNIA, priority 2005, published 2009).
Counter-ions that a name gives are not always drawn. Like-named read-outs stand apart in the source and are kept apart here. Each block holds one molecule with its values, some of them ahead of it.

How the values were obtained:
Type in all cases: biochemical
Nterm-phos [1] = biological target: T1, Nterm-phos (Homo sapiens, UniProt P34913); assay: Specific activity of Nterm-phos for lipid-phosphates (phosphoric acid formed); conditions: substrate hydrolysis, 30° C., average ± SD of three experiments
T1 construct: use of a truncated enzyme from crude extract versus purified full-length human sEH; made in house; host or cells: baculovirus expression system (insect cells)
T1 sequence (P34913 1-555): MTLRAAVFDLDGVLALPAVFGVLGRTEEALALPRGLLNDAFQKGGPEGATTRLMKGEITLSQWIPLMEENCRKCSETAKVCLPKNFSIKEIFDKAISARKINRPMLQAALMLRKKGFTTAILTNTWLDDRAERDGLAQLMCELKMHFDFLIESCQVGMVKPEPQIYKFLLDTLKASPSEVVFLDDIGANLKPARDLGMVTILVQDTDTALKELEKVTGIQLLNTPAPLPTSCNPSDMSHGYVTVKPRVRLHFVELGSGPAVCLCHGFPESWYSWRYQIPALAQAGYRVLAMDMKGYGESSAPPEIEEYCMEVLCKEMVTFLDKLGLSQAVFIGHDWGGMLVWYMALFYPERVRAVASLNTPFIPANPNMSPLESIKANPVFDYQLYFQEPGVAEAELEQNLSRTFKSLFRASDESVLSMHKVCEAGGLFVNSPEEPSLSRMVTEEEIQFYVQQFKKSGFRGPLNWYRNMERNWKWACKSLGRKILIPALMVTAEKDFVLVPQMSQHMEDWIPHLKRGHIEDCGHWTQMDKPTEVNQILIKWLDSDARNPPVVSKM
Procedure: Nterm-Phos activity was measured in Bis-Tris HCl buffer (25 mM PH 7.0) containing 0.1 mg/mL of Fraction V BSA and 1 mM of MgCl2 (buffer A) at 30° C. […] APHP activity was measured as described using 7 as substrate (Newman et al., Proc. Natl. Acad. Sci. USA. 100, 1558-1563 (2003)). Compounds 34-37 were incubated separately with the enzyme for a given time, and then the reaction was stopped by the addition of 100 μL of methanol. The reaction products for compounds 34-37 were extracted with 500 μL of ethyl acetate. The quantification of the alcohol products was performed by LC/MS analysis of 2 μL of the organic phase. The Cterm-EH activity was measured as described previously in buffer A, using either racemic 4-nitrophenyl-trans-2,3-epoxy-3-phenylpropyl carbonate (Dietze et al., Anal. Biochem. 216, 176-187 (1994)) or racemic [^3H]-trans-1,3-diphenylpropene oxide as substrate (Borhan et al., Anal. Biochem. 231, 188-200 (1995)). This latter substrate was also used to measure the activity of the cress sEH and the truncated human sEH.

Human Cterm-EH = biological target: T2, Human Cterm-EH (Homo sapiens, UniProt P34913); assay: Inhibition of Cterm-EH activity by lipid-phosphates, fluorescent assay
T2 construct: use of a truncated enzyme from crude extract versus purified full-length human sEH; made in house; host or cells: baculovirus expression system (insect cells)
T2 sequence (P34913 1-555): T1 sequence (P34913 1-555)

[2] = biological target: T3, Human sEH Cterm-EH activity (Homo sapiens, UniProt P34913); assay: Cterm-EH inhibition IC50 with 4-nitrophenyl-trans-2,3-epoxy-3-phenylpropyl carbonate
T3 construct: use of a truncated enzyme from crude extract versus purified full-length human sEH; made in house; host or cells: baculovirus expression system (insect cells)
T3 sequence (P34913 1-555): T1 sequence (P34913 1-555)

Nterm-phos [3] = biological target: T1, Nterm-phos; assay: Kinetic parameters of Nterm-phos for poly-isoprenyl phosphates (LC/MS of alcohol products)
Procedure: Nterm-Phos activity was measured in Bis-Tris HCl buffer (25 mM PH 7.0) containing 0.1 mg/mL of Fraction V BSA and 1 mM of MgCl2 (buffer A) at 30° C. […] APHP activity was measured as described using 7 as substrate (Newman et al., Proc. Natl. Acad. Sci. […] The quantification of the alcohol products was performed by LC/MS analysis of 2 μL of the organic phase. […] This latter substrate was also used to measure the activity of the cress sEH and the truncated human sEH. […] The Shimadzu […] HPLC system (Shimadzu Scientific Instruments, Columbia, Md.) was set at a flow rate of 0.2 mL/min, and a 2.1×30 mm XTerraTM MS C18 3.5 μm column (Waters, Milford, Mass.) held at 20° C. The samples were kept at 10° C. in the auto-sampler. […] A solvent system consisting of water with 0.1% formic acid (solvent A) and acetonitrile with 0.1% formic acid (solvent B) was used and set at a flow rate of 0.25 mL/min. […] Pyrophosphate was analyzed by direct injection of 5 μL sample into the mass spectrometer at 0.05 mL/min flow rate of 50% A and 50% B. Analytes were detected by electrospray ionization-tandem quadrupole mass spectrometry in multiple reaction monitoring mode (MRM) using a Quattro Premier tandem quadrupole mass spectrometer (Micromass, Manchester, UK). Nitrogen gas flow rates were fixed with a cone gas flow of 25 L/h and a desolvation gas flow of 700 L/h. Electrospray ionization of geraniol, farnesol and geranylgeraniol was performed in positive mode with a capillary voltage fixed at 3.20 kV and a cone voltage fixed at 25 V using a source temperature of 125° C. and a desolvation temperature of 350° C. Capillary voltage and cone voltage were optimized in an infusion experiment. […] However, intense [M+H-18]^+ ions were produced in the source due to water loss. Therefore, these ions were selected as precursor ions to set MRM acquisition mode. Monitored transitions were 137>95 m/z for geraniol, 205>121 m/z for farnesol, and 273>149 m/z for geranylgeraniol at collision voltage of 15 V for all analytes. Argon was used as collision gas (2.2×10^-3 Torr). […] Chromatogram integration and analyte quantification was performed with QuantLynx module of the MassLynx 4.0 software (Micromass, Manchester, UK).

[4] = substrate 50 μM, 5 min preincubation, 30° C., read-out: IC50

Structure (SMILES): CC(C)=CCC/C(C)=C/CC/C(C)=C/C1C(COP(=O)(O)OP(=O)(O)O)C1(C)CC/C=C(\C)CCC=C(C)C (stereo in doubt) [Pre-squalene diphosphate (PSDP), Pre-squalene diphosphate]
- Spec. Act. (Nterm-phos [1]): 30 ± 15 nmol/min/mg
- Inhibition (%) (Human Cterm-EH; [LP] 14 μM): 86%

Structure (SMILES): CC(C)=CCC/C(C)=C/CC/C(C)=C/C1C(COP(=O)(O)O)C1(C)CC/C=C(\C)CCC=C(C)C (stereo in doubt) [Pre-squalene monophosphate (PSMP), Pre-squalene monophosphate]
- Spec. Act. (Nterm-phos [1]): 54 ± 22 nmol/min/mg
- Inhibition (%) (Human Cterm-EH; [LP] 14 μM): 30%

Structure (SMILES): CCCCCCCC/C=C\CCCCCCCC(=O)OCC(COP(=O)(O)O)OC(=O)CCCCCCC/C=C\CCCCCCCC (stereo not drawn) [1,2-Dioleoyl-glycerol-3-phosphate (DOGP), 1,2-Dioleoyl-glycerol-3-phosphate]
- Spec. Act. (Nterm-phos [1]): <0.3 nmol/min/mg

Structure (SMILES): O=[N+]([O-])c1ccc(OS(=O)(=O)O)cc1 [Compound 13, 4-Nitrophenyl sulfate]
- IC50 [2, 4]: > 100 µM

Structure (SMILES): C[C@H](CCC(=O)NCCS(=O)(=O)O)[C@H]1CC[C@H]2[C@@H]3CC[C@@H]4C[C@H](OS(=O)(=O)O)CC[C@]4(C)[C@H]3CC[C@]12C [Compound 14, Taurolithocholic acid 3-sulfate]
- IC50 ([2]; read-out: IC50): 90 ± 5 µM

Structure (SMILES): C[C@H](CCC(=O)NCCS(=O)(=O)O)[C@H]1CC[C@H]2[C@@H]3[C@H](O)C[C@@H]4C[C@H](O)CC[C@]4(C)[C@H]3C[C@H](O)[C@]12C [Compound 15, Taurocholic acid]
- IC50 [2]: > 100 µM

Structure (SMILES): CCOP(=O)(OCC)C(=O)c1ccccc1 [Compound 22, Diethyl-benzoylphosphonate]
- IC50 [2]: > 100 µM

Structure (SMILES): CCOP(=O)(C/C=C/c1ccccc1)OCC [Compound 24, Diethyl trans-cinnamyl-phosphonate]
- IC50 [2]: > 100 µM

Structure (SMILES): CCOP(=O)(Cc1ccc(C)cc1)OCC [Compound 25, Diethyl 4-methylbenzyl-phosphonate]
- IC50 [2]: > 100 µM

Structure (SMILES): CCCCCCCCOP(=O)(OCCCCCCCC)c1ccccc1 [Compound 27, Dioctyl-phenyl-phosphonate]
- IC50 [2, 4]: 92 ± 3 µM

Structure (SMILES): O=P(O)(OCc1ccccc1)OCc1ccccc1 [Compound 28, Di-benzyl-phosphate]
- IC50 [2, 4]: > 100 µM

Structure (SMILES): CCCCCC(=O)CP(=O)(OC)OC [Compound 29, Dimethyl (2-oxoheptyl)-phosphonate]
- IC50 [2]: > 100 µM

Structure (SMILES): CCOP(=O)(OCC)C(O)C(F)(F)F (stereo not drawn) [Compound 30, Diethyl (2,2,2-trifluoro-1-hydroxyethyl)-phosphonate]
- IC50 [2]: > 100 µM

Structure (SMILES): CCOP(=O)(CSCC)OCC [Compound 31, Diethyl (ethyltiomethyl)phosphonate]
- IC50 [2]: > 100 µM

Structure (SMILES): CCCCCCCCCCCCP(=O)(O)O [Compound 33, Dodecyl phosphonic acid]
- IC50 [2, 4]: > 100 µM

Structure (SMILES): CC(C)=CCC/C(C)=C/COP(=O)(O)OP(=O)(O)O [Compound 34, Geranyl-pyrophosphate]
- Km (Nterm-phos [3]; linear curve, above the highest concentration tested): > 5 µM

Structure (SMILES): CC(C)=CCC/C(C)=C/CC/C(C)=C/COP(=O)(O)OP(=O)(O)O [Compound 35, Farnesyl-pyrophosphate]
- Spec. Act. (Nterm-phos [1]): 32 ± 7 nmol/min/mg
- Inhibition (%) (Human Cterm-EH; [LP] 10 μM): 60%
- Hill coefficient (Nterm-phos [3]; compound as substrate): 1.0 ± 0.1
- Km (Nterm-phos [3]; compound as substrate): 10.1 ± 1.1 µM
- VM (Nterm-phos [3]; compound as substrate): 12.5 ± 1.0 nmol/min/mg

Results, then the molecule that gave them:

- IC50 [2, 4]: > 100 µM
Structure (SMILES): CCCCCCCCCCCCCCCCC(C(=O)O)S(=O)(=O)O (stereo not drawn) [Compound 10, α-Sulfostearic acid]

- IC50 [2, 4]: > 100 µM
Structure (SMILES): CCCCCCCCCCCCS(=O)(=O)O [Compound 12, Sodium dodecyl-sulfonate]

- IC50 [2, 4]: > 100 µM
Structure (SMILES): C[C@]12CC[C@@H]3c4ccc(OS(=O)(=O)O)cc4CC[C@H]3[C@@H]1CCC2=O [Compound 16, Estrone-3-sulfate]

- IC50 [2, 4]: > 100 µM
Structure (SMILES): O=C[C@H](O)[C@@H](O)[C@@H](O)[C@H](O)COS(=O)(=O)O [Compound 17, D-Galactose-6-sulfate]

- IC50 [2, 4]: > 100 µM
Structure (SMILES): O=C1O[C@H]([C@@H](O)CO)C(O)=C1OS(=O)(=O)O [Compound 18, L-Ascorbic acid 2-sulfate dipotassium salt]

- IC50 [2, 4]: > 100 µM
Structure (SMILES): CC(=O)N[C@H]1C(O)O[C@H](CO)[C@H](OS(=O)(=O)O)[C@@H]1O (stereo partly drawn) [Compound 19, N-Acetyl-D-galactosamine 4-sulfate]

- IC50 [2, 4]: > 100 µM
Structure (SMILES): CC(C)OP(=O)(CP(=O)(OC(C)C)OC(C)C)OC(C)C [Compound 20, Tetra-isopropyl-methylene diphosphonate]

- Inhibition (%) (Human Cterm-EH; [LP] 10 μM): 45%
- Hill coefficient (Nterm-phos [3]; compound as substrate): 1.0 ± 0.2
- Km (Nterm-phos [3]; compound as substrate): 3.4 ± 1.6 µM
- VM (Nterm-phos [3]; compound as substrate): 4.7 ± 1.1 nmol/min/mg
Structure (SMILES): CC(C)=CCC/C(C)=C/CC/C(C)=C/CC/C(C)=C/COP(=O)(O)OP(=O)(O)O [Compound 36, Geranylgeranyl-pyrophosphate]

- hydrolyzed faster than the corresponding pyrophosphate derivative (Nterm-phos [3]): approximately 50 fold
- Hill coefficient (Nterm-phos [3]; compound as substrate): 1.0 ± 0.1
- Km (Nterm-phos [3]; compound as substrate): 5.7 ± 0.4 µM
- VM (Nterm-phos [3]; compound as substrate): 303 ± 19 nmol/min/mg
Structure (SMILES): CC(C)=CCC/C(C)=C\CC/C(C)=C\COP(=O)(O)O [Compound 37, Farnesyl monophosphate]

- Spec. Act. (Nterm-phos [1]): <0.3 nmol/min/mg
- Inhibition (%) (Human Cterm-EH; [LP] 50 μM): 31%
Structure (SMILES): CCCCCCCCCCCCCC=CC(O)C(COP(=O)(O)O)NC(=O)CCCCCCC (stereo not drawn) [N-Octyl-ceramide-1-phosphate (OCP), N-Octyl-ceramide-1-phosphate]

- Spec. Act. (Nterm-phos [1]): 1.1 ± 0.1 nmol/min/mg
- inhibition at 40 µM (Human Cterm-EH; [LP] 40 μM): 2%
Structure (SMILES): CCCCCCCCCCCCC/C=C/[C@@H](O)[C@@H](N)COP(=O)(O)O [Sphingosine-1-phosphate (S1P), Sphingosine-1-phosphate]
